The supplement of paper PMC10883282

Key:
Test in all cases: standardised AUC of viability dose-response curve (72 h) (fraction (0-1)); higher = less growth inhibition (more resistant)
[1] = system: SW982
Procedure, shortened: (§1)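 Viability of sarcoma cell lines was read with ATPLite after 72 h of triplicate treatment in 384-well plates with 2.5 µl of compound from a compound-plate series of 10 mM to 0.0002 mM. Viability was scaled 1 (full) to 0 (none) and fitted with a four-parameter log-logistic model for each drug and cell line. The reported standardised area under the dose-response curve in log-dose space comes from a modified drexplorer computeAUC, where 1 is no response and 0 is full response.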

[2] = system: G401
Procedure, shortened: as §1

[3] = system: SW684
Procedure, shortened: as §1

[4] = system: HT1080
Procedure, shortened: as §1

[5] = system: RD-ES
Procedure, shortened: as §1

[6] = system: SYO-1
Procedure, shortened: as §1

[7] = system: KHOS-240S
Procedure, shortened: as §1

[8] = system: SW872
Procedure, shortened: as §1

[9] = system: A204
Procedure, shortened: as §1

[10] = system: SK-ES-1
Procedure, shortened: as §1

[11] = system: SW1353
Procedure, shortened: as §1

[12] = system: SK-LMS-1
Procedure, shortened: as §1

[13] = system: KHOS-NP
Procedure, shortened: as §1

[14] = system: MES-SA
Procedure, shortened: as §1

[15] = system: HS729
Procedure, shortened: as §1

[16] = system: RD
Procedure, shortened: as §1

[17] = system: VA-ES-BJ
Procedure, shortened: as §1

Compound | standardised AUC [1] | standardised AUC [2] | standardised AUC [3] | standardised AUC [4] | standardised AUC [5] | standardised AUC [6] | standardised AUC [7] | standardised AUC [8] | standardised AUC [9] | standardised AUC [10] | standardised AUC [11] | standardised AUC [12] | standardised AUC [13] | standardised AUC [14] | standardised AUC [15] | standardised AUC [16] | standardised AUC [17]
C[C@@H](Oc1cc(-c2cnn(C3CCNCC3)c2)cnc1N)c1c(Cl)ccc(F)c1Cl [CRIZOTINIB] | 0.74 | 0.859 | 0.901 | 0.919 | 0.758 | 0.745 | 0.873 | 0.834 | 0.877 | 0.72 | 0.915 | 0.717 | 0.944 | 0.765 | 0.879 | 0.824 | 0.817
CO[C@H]1C[C@@H]2CC[C@@H](C)[C@@](O)(O2)C(=O)C(=O)N2CCCC[C@H]2C(=O)O[C@H]([C@H](C)C[C@@H]2CC[C@@H](O)[C@H](OC)C2)CC(=O)[C@H](C)/C=C(\C)[C@@H](O)[C@@H](OC)C(=O)[C@H](C)C[C@H](C)/C=C/C=C/C=C/1C [RAPAMYCIN] | 0.724 | 0.814 | 0.763 | 0.916 | 0.778 | 0.846 | 0.815 | 0.729 | 0.607 | 0.63 | 0.856 | 0.665 | 0.989 | 0.489 | 0.944 | 0.712 | 0.589
C1=N/C2=N/c3ccc(OCCN4CCCC4)c(c3)COC/C=C/COCc3cccc(c3)C(=C1)N2 [PACRITINIB] | 0.733 | 0.793 | 0.758 | 0.853 | 0.792 | 0.747 | 0.811 | 0.786 | 0.736 | 0.714 | 0.836 | 0.897 | 0.898 | 0.787 | 0.855 | 0.781 | 0.753
C[C@H]1Oc2cc(cnc2N)-c2c(nn(C)c2C#N)CN(C)C(=O)c2ccc(F)cc21 [LORLATINIB] | 0.887 | 0.96 | 0.983 | 0.977 | 0.932 | 0.895 | 0.953 | 0.861 | 0.959 | 0.963 | 0.928 | 0.952 | 0.957 | 0.951 | 0.871 | 0.926 | 0.941
COc1cc2c(Oc3ccc4[nH]c(C)cc4c3F)ccnc2cc1OCC1(N)CC1 [ANLOTINIB] | 0.904 | 0.872 | 0.944 | 0.965 | 0.914 | 0.736 | 0.883 | 0.936 | 0.708 | 0.851 | 0.909 | 0.868 | 0.93 | 0.876 | 0.909 | 0.903 | 0.941
CCCS(=O)(=O)N[C@H]1C[C@@H](N(C)c2ncnc3[nH]ccc23)C1 [ABROCITINIB] | 0.997 | 0.985 | 0.989 | 1 | 1 | 1 | 0.989 | 0.991 | 0.984 | 0.985 | 1 | 0.997 | 0.994 | 0.996 | 0.982 | 0.995 | 1
COc1cc2nccc(Oc3ccc(NC(=O)NC4CC4)c(Cl)c3)c2cc1C(N)=O [LENVATINIB] | 0.966 | 0.845 | 0.992 | 0.995 | 0.937 | 0.701 | 0.888 | 0.978 | 0.587 | 0.898 | 0.914 | 0.984 | 1 | 0.911 | 0.866 | 0.999 | 1
CN(C)C[C@@H]1CCn2cc(c3ccccc32)C2=C(C(=O)NC2=O)c2cn(c3ccccc23)CCO1 [RUBOXISTAURIN] | 0.947 | 0.954 | 0.991 | 0.995 | 0.945 | 0.861 | 0.99 | 0.953 | 0.926 | 0.911 | 0.947 | 0.929 | 0.99 | 0.951 | 0.969 | 0.99 | 0.946
Cc1ccc(NC(=O)c2ccc(CN3CCN(C)CC3)cc2)cc1Nc1nccc(-c2cccnc2)n1 [IMATINIB] | 0.98 | 0.957 | 0.983 | 0.974 | 0.983 | 0.865 | 0.949 | 0.979 | 0.725 | 0.962 | 0.984 | 0.982 | 0.966 | 0.973 | 0.959 | 0.988 | 0.987
C=CC(=O)Nc1cccc(Nc2nc(Nc3ccc(N4CCN(C(C)=O)CC4)cc3OC)ncc2C(F)(F)F)c1 [ROCILETINIB] | 0.906 | 0.886 | 0.937 | 0.973 | 0.857 | 0.867 | 0.929 | 0.912 | 0.912 | 0.831 | 0.889 | 0.893 | 0.975 | 0.874 | 0.878 | 0.899 | 0.921
COc1cc(Nc2c(C#N)cnc3cc(OCCCN4CCN(C)CC4)c(OC)cc23)c(Cl)cc1Cl [BOSUTINIB] | 0.795 | 0.932 | 0.883 | 0.917 | 0.856 | 0.909 | 0.851 | 0.848 | 0.93 | 0.78 | 0.895 | 0.932 | 0.87 | 0.861 | 0.906 | 0.895 | 0.85
CCCCCCCCCCCCCCCCCCOP(=O)([O-])OC1CC[N+](C)(C)CC1 [PERIFOSINE] | 0.99 | 0.994 | 0.999 | 0.966 | 0.994 | 0.946 | 0.983 | 0.915 | 0.982 | 0.952 | 0.962 | 0.941 | 0.966 | 0.954 | 0.924 | 0.996 | 0.968
CC[C@@H]1C(=O)N(C)c2cnc(Nc3ccc(C(=O)N[C@H]4CC[C@H](N5CCN(CC6CC6)CC5)CC4)cc3OC)nc2N1C(C)C [VOLASERTIB] | 0.547 | 0.653 | 0.693 | 0.601 | 0.504 | 0.453 | 0.534 | 0.578 | 0.647 | 0.52 | 0.723 | 0.635 | 0.642 | 0.555 | 0.766 | 0.533 | 0.531
CNC(=O)c1cc(Oc2ccc(NC(=O)Nc3ccc(Cl)c(C(F)(F)F)c3)cc2)ccn1 [SORAFENIB] | 0.975 | 0.916 | 0.936 | 0.944 | 0.966 | 0.841 | 0.93 | 0.978 | 0.756 | 0.949 | 0.951 | 0.917 | 0.907 | 0.925 | 0.943 | 0.951 | 0.95
NC(=O)c1cnc2[nH]ccc2c1N[C@@H]1[C@@H]2CC3C[C@H]1C[C@@](O)(C3)C2 [PEFICITINIB] | 0.929 | 1 | 0.988 | 1 | 0.983 | 0.888 | 0.955 | 0.977 | 0.912 | 0.938 | 1 | 0.985 | 0.982 | 0.949 | 0.988 | 1 | 0.995
N#CCC1(n2cc(-c3ncnc4[nH]ccc34)cn2)CN(C2CCN(C(=O)c3ccnc(C(F)(F)F)c3F)CC2)C1 [ITACITINIB] | 0.974 | 0.968 | 0.983 | 0.977 | 0.975 | 0.867 | 0.96 | 0.922 | 0.965 | 0.969 | 0.95 | 0.948 | 0.946 | 0.977 | 0.853 | 0.997 | 0.948
CO[C@@H]1[C@H](N(C)C(=O)c2ccccc2)C[C@H]2O[C@]1(C)n1c3ccccc3c3c4c(c5c6ccccc6n2c5c31)C(=O)NC4 [MIDOSTAURIN] | 0.709 | 0.778 | 0.835 | 0.8 | 0.764 | 0.642 | 0.709 | 0.757 | 0.715 | 0.689 | 0.733 | 0.773 | 0.812 | 0.731 | 0.796 | 0.81 | 0.785
COc1cc2ncnc(Nc3ccc(F)c(Cl)c3)c2cc1NC(=O)/C=C/CN1CCCCC1 [DACOMITINIB] | 0.814 | 0.89 | 0.888 | 0.916 | 0.879 | 0.856 | 0.896 | 0.87 | 0.842 | 0.824 | 0.804 | 0.91 | 0.939 | 0.858 | 0.907 | 0.869 | 0.893
N#Cc1ccnc(N2C(=O)CC[C@H]2C(=O)N(c2cncc(F)c2)[C@H](C(=O)NC2CC(F)(F)C2)c2ccccc2Cl)c1 [IVOSIDENIB] | 0.974 | 0.981 | 0.993 | 1 | 0.988 | 0.985 | 0.988 | 1 | 0.972 | 0.997 | 0.993 | 0.977 | 0.993 | 0.999 | 0.986 | 0.992 | 0.987
Cc1nc(Nc2ncc(C(=O)Nc3c(C)cccc3Cl)s2)cc(N2CCN(CCO)CC2)n1 [DASATINIB] | 0.607 | 0.86 | 0.767 | 0.941 | 0.949 | 0.736 | 0.617 | 0.716 | 0.612 | 0.907 | 0.712 | 0.78 | 0.725 | 0.949 | 0.774 | 0.658 | 0.651
C=CC(=O)Nc1cc(Nc2nccc(-c3cn(C)c4ccccc34)n2)c(OC)cc1N(C)CCN(C)C [OSIMERTINIB] | 0.907 | 0.904 | 0.939 | 0.938 | 0.89 | 0.798 | 0.923 | 0.918 | 0.873 | 0.847 | 0.919 | 0.925 | 0.974 | 0.893 | 0.874 | 0.921 | 0.916
CCN(c1cc(-c2ccc(CN3CCOCC3)cc2)cc(C(=O)NCc2c(C)cc(C)[nH]c2=O)c1C)C1CCOCC1 [TAZEMETOSTAT] | 0.985 | 0.989 | 0.998 | 0.988 | 0.985 | 0.971 | 0.971 | 0.986 | 0.998 | 0.96 | 0.973 | 0.977 | 0.963 | 0.976 | 0.946 | 0.997 | 1
Cc1c(F)cc(C(=O)NC2CC2)cc1-c1ccc(C(=O)NCC(C)(C)C)cn1 [LOSMAPIMOD] | 0.991 | 0.941 | 0.995 | 0.999 | 0.95 | 0.933 | 0.944 | 0.992 | 0.977 | 0.929 | 0.993 | 0.973 | 0.999 | 0.944 | 0.87 | 0.981 | 0.941
Cc1cc(Nc2ncc(Cl)c(Nc3ccccc3S(=O)(=O)C(C)C)n2)c(OC(C)C)cc1C1CCNCC1 [CERITINIB] | 0.827 | 0.833 | 0.923 | 0.918 | 0.784 | 0.884 | 0.874 | 0.901 | 0.87 | 0.751 | 0.865 | 0.924 | 0.933 | 0.916 | 0.889 | 0.81 | 0.933
